Measurements reported in PubChem BioAssay (NCI).
Values joined by “and” are separate entries in the source; they are usually repeats but may differ in a detail not shown here. Equal entries are not always repeated.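 Where inhibition never reached the appropriate level, the endpoint shown equals the highest concentration tested. Otherwise, values were interpolated linearly from a five-concentration, 48-hour dose response in 96-well plates. Abbreviation: GI50, concentration required for 50% inhibition of growth. TGI marks complete inhibition of growth.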

Legend:
Experiment in all cases: NCI-60 cell line screen, 48 h
786-0 renal = tested on: 786-0 renal
DU-145 prostate = tested on: DU-145 prostate
HCT-116 colon = tested on: HCT-116 colon
IGROV1 ovarian = tested on: IGROV1 ovarian
MDA-MB-231 breast = tested on: MDA-MB-231 breast
NCI-H226 lung = tested on: NCI-H226 lung
OVCAR-8 ovarian = tested on: OVCAR-8 ovarian
RXF 393 renal = tested on: RXF 393 renal
SK-MEL-5 melanoma = tested on: SK-MEL-5 melanoma
SW-620 colon = tested on: SW-620 colon

Structure (SMILES)	GI50 (786-0 renal)	TGI (786-0 renal)	GI50 (DU-145 prostate)	TGI (DU-145 prostate)	GI50 (HCT-116 colon)	TGI (HCT-116 colon)	GI50 (IGROV1 ovarian)	TGI (IGROV1 ovarian)	GI50 (MDA-MB-231 breast)	TGI (MDA-MB-231 breast)	GI50 (NCI-H226 lung)	TGI (NCI-H226 lung)	GI50 (OVCAR-8 ovarian)	TGI (OVCAR-8 ovarian)	GI50 (RXF 393 renal)	TGI (RXF 393 renal)	GI50 (SK-MEL-5 melanoma)	TGI (SK-MEL-5 melanoma)	GI50 (SW-620 colon)	TGI (SW-620 colon)
Clc1ccc(-c2nc(-c3c[nH]c4ncccc34)cs2)cc1	> 100 µM	> 100 µM	> 100 µM	> 100 µM	52.9 µM	> 100 µM	4.78 µM	> 100 µM	> 100 µM	> 100 µM	> 100 µM	> 100 µM	> 100 µM	> 100 µM	> 100 µM	> 100 µM	> 100 µM	> 100 µM	36.3 µM	> 100 µM
O=C(/C=C/c1ccccc1Cl)c1ccc(O)cc1	15.8 µM	30 µM	4.16 µM	13.1 µM	2.98 µM	10.8 µM	2.25 µM	5.25 µM	13.6 µM	31 µM	15.2 µM	42.8 µM	8.3 µM	26.3 µM	1.97 µM	5.59 µM	9.57 µM	23.4 µM	2.89 µM	7.88 µM
O=S(=O)(c1ccc2c(c1)C(=NO)c1cc(S(=O)(=O)N3CCCCC3)ccc1-2)N1CCCCC1	0.212 µM and 0.186 µM	0.499 µM and 0.342 µM	0.206 µM and 0.154 µM	0.397 µM and 0.296 µM	0.2 µM and 0.153 µM	0.434 µM and 0.333 µM	0.131 µM and 0.0732 µM	0.494 µM and 0.213 µM	0.179 µM and 0.0562 µM	0.36 µM and 0.112 µM	0.292 µM and 0.106 µM	0.936 µM and 0.298 µM	0.306 µM and 0.0904 µM	0.842 µM and 0.281 µM	> 1 µM and 0.204 µM	> 1 µM and 0.358 µM	> 1 µM and 0.174 µM	> 1 µM and 0.314 µM	0.197 µM and 0.0743 µM	0.437 µM and 0.174 µM
Cc1ccc(NC(=O)C2C(=O)C(=O)N(c3ccc(C)cc3)C2=O)cc1 (stereo not given)	–	> 100 µM	–	–	–	> 100 µM	–	> 100 µM	–	–	–	–	–	> 100 µM	–	> 100 µM	–	> 100 µM	–	> 100 µM
C[C@@]12CCC[C@@](C)(C(=O)O)C1CC[C@]13C=C(CO)[C@](O)(CCC12)C3 (stereo not given in full)	> 100 µM	> 100 µM	> 100 µM	> 100 µM	> 100 µM	> 100 µM	> 100 µM	> 100 µM	> 100 µM	> 100 µM	> 100 µM	> 100 µM	> 100 µM	> 100 µM	> 100 µM	> 100 µM	> 100 µM	> 100 µM	> 100 µM	> 100 µM
O=C(O)c1ccc([N+](=O)[O-])c(P(=O)(O)O)c1	–	> 100 µM	–	> 100 µM	–	> 100 µM	–	> 100 µM	–	> 100 µM	–	> 100 µM	–	> 100 µM	–	> 100 µM	–	> 100 µM	–	> 100 µM
S=C1CNC(=S)CN1	–	> 100 µM	–	–	–	> 100 µM	–	> 100 µM	–	–	–	> 100 µM	–	> 100 µM	–	> 100 µM	–	> 100 µM	–	> 100 µM
